Columns and labels:
humans = details: cited from earlier work
5-HT2A receptor = 5-HT2A receptor (Homo sapiens, UniProt P28223); details: cited from earlier work
5-HT1A receptor = molecular target: T1, 5-HT1A receptor (Homo sapiens, UniProt P08908); details: literature and data on file; cited from earlier work
T1 sequence (P08908 1-422): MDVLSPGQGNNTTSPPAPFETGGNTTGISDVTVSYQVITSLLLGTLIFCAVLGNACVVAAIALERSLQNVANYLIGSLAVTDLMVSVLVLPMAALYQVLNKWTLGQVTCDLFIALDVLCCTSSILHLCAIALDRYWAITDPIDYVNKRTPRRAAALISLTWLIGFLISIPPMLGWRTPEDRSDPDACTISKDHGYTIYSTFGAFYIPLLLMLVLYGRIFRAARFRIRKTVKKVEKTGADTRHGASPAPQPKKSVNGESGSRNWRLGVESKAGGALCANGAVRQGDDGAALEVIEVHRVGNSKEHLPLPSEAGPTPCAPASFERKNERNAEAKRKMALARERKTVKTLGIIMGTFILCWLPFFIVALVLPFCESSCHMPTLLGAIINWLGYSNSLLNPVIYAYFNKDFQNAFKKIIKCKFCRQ

D2 receptors = D2 receptors (Homo sapiens, UniProt P14416); details: literature and data on file; cited from earlier work
Sequence of D2 receptors (P14416 whole entry): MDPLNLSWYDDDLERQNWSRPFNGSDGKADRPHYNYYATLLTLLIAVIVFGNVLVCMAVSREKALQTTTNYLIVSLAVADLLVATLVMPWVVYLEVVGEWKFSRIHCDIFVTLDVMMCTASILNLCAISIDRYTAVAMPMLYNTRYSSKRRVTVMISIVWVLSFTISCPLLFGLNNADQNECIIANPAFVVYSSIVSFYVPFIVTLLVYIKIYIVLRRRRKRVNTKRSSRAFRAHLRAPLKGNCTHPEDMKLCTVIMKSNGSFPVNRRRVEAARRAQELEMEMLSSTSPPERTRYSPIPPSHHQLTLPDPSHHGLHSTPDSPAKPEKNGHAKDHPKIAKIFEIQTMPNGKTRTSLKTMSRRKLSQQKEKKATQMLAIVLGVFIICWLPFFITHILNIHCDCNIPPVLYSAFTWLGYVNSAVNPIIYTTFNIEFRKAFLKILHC

5-HT transporter (SERT) [1] = molecular target: T2, 5-HT transporter (SERT) (Homo sapiens, UniProt P31645); test: interaction with the 5-HT transporter; details: data on file
T2 sequence (P31645 whole entry, species assumed): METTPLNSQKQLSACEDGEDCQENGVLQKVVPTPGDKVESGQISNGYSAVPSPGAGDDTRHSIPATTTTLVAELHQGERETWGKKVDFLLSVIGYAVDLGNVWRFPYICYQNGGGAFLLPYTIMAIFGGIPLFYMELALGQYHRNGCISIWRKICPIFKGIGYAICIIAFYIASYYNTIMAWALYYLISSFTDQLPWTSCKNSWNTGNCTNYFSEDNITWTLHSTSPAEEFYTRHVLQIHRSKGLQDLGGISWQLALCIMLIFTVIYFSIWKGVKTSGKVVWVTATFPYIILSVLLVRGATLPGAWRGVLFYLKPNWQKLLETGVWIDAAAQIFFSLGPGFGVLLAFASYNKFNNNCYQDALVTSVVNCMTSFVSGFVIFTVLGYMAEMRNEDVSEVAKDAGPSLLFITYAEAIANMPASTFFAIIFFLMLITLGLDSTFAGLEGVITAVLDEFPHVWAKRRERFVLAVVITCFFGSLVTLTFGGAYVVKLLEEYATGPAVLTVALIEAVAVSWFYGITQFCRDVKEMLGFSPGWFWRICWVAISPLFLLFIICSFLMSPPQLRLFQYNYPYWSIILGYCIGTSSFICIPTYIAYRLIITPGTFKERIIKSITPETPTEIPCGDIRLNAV

5-HT transporter (SERT) [2] = molecular target: T2, 5-HT transporter (SERT); details: cited from earlier work

Sequence of 5-HT2A receptor (P28223 whole entry): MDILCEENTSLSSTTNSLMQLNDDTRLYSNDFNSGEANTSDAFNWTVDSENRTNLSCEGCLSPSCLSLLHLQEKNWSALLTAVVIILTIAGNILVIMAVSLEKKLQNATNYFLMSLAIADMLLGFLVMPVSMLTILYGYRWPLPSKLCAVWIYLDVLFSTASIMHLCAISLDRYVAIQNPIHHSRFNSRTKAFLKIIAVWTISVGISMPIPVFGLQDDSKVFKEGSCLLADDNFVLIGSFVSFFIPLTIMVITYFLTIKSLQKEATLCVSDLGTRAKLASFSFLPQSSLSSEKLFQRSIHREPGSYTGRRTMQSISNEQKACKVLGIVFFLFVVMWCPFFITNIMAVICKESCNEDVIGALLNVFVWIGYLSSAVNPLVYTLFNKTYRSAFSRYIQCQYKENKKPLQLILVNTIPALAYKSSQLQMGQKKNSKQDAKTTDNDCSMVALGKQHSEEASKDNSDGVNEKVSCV

In the case of COc1cc(CCN)c(OC)cc1C [2C-D, 2,5-dimethoxy-4-methylphenethylamine], the “duration of action / psychoactive effects” value (humans) is listed as 4 to 6 h and the “psychoactive dose in humans (full active doses / human potency)” value (humans) is listed as 20 to 60 mg.
In the case of C#Cc1cc(OC)c(CCN)cc1OC.Cl [2C-YN, 2,5-Dimethoxy-4-ethynylphenethylamine hydrochloride], the “duration of action / psychoactive effects” value (humans) is given as 2 to 3 h.
In the case of COc1cc(CC(C)N)c(OC)cc1C (centres unmarked) [DOM, 2,5-dimethoxy-4-methylamphetamine], the “5-HT2A receptor affinity” value (5-HT2A receptor) is listed as “high affinities”, the “5-HT1A receptor affinity” value (5-HT1A receptor) is listed as “very low affinity” and the “D2 receptor affinity” value (D2 receptors) is listed as “no affinity”. For the same molecule, the “interaction with the SERT” value (5-HT transporter (SERT) [1]) was “do not interact”, the “duration of action / psychoactive effects” value (humans) was 14 to 20 h and the “psychoactive dose in humans (full active doses / human potency)” value (humans) was 3 to 10 mg. For the same molecule, the “psychoactive dose, off of baseline” value (humans) was 1 mg, the “time to first subjective effects” value (humans) was 30 min and the “time to full effects (onset of action)” value (humans) was “up to 2 hours”.
In the case of CCN(CC)C(=O)[C@@H]1C=C2c3cccc4[nH]cc(c34)C[C@H]2N(C)C1 [LSD, lysergic acid diethylamide], the “duration of action / psychoactive effects” value (humans) is given as 8 to 12 h.
In the case of CN(C)CCc1c[nH]c2cccc(O)c12 [Psilocin], the “action at the SERT” value (5-HT transporter (SERT) [2]) is given as “inhibits”.
In the case of COc1cc(CCN)cc(OC)c1OC [mescaline], the “5-HT2A receptor affinity” value (5-HT2A receptor) is given as “very weak” and the “D2 receptor affinity” value (D2 receptors) is given as “no affinity”.
In the case of COc1cc(C)cc(OC)c1CC(C)N (centres unmarked) [ψ-DOM, 2,6-dimethoxy-4-methylamphetamine], the “5-HT2A binding affinity in comparison to DOM” value (5-HT2A receptor) is given as “approximately three-fold lower”, the “duration of action / psychoactive effects” value (humans) is given as 6 to 8 h and the “psychoactive dose in humans (full active doses / human potency)” value (humans) is given as 15 to 25 mg. For the same molecule, the “dose relative to DOM” value (humans; higher dose than DOM) was 3- to 5 fold.
